Experimental data as given in patent US11713323B2, “Crystalline forms of therapeutic compounds and uses thereof” (Kala Pharmaceuticals, Inc., priority 2013, dated 2023).

Key:
Format in all cases: physicochemical
[1] = Stability of MPP suspensions of crystalline forms on storage (XRPD profile)
Procedure: To characterize the stability of the resulting crystalline forms of Compound 3, changes in XRPD profiles following long-term storage were determined. An MPP suspension comprising of crystalline Form A was stored at room temperature for 7 weeks, while a second MPP suspension also comprising of crystalline Form A was stored at room temperature for 7 weeks followed by an additional 1.5 weeks of agitation. […] To further test the potential for longer term storage, two additional MPP samples comprising of Form A, which were formulated at pH 5.8 and pH 7.4 by incorporating different buffers in the milling slurry, were stored at room temperature for 8 months and then analyzed by XRPD.
To confirm long-term stability, an MPP suspension of crystalline Form B was stored for 7 weeks at room temperature and then was characterized by XRPD. The results of that analysis are shown in FIG. 5, which provides the XRPD pattern of the original crystalline Form B material in the bottom trace and the XRPD pattern of the material after seven weeks of storage in the top trace.

[2] = Crystal form stability during wet-milling (XRPD); details: 5% in 5% F127/DPBS, wet-milled 2 days
Procedure: In accordance to Example 3, mucus-penetrating particles comprising of Crystalline Form B was prepared by wet-milling neat Crystalline Form B. A slurry containing 5% neat crystalline From B of Compound 3 and 5% F127 in DPBS (Dulbecco's Phosphate Buffered Saline) was added to an equal bulk volume of 1-mm ceria-stabilized zirconium oxide beads in a glass vial (e.g. 0.5 mL of slurry for 0.5 mL of beads). A magnetic stir bar was used to agitate the beads, stirring at approximately 500 rpm. The sample was milled for 2 days. Nanoparticles which were approximately 200 nm in diameter (z-averaged), as measured by DLS, were generated.

[3] = Competition between crystalline Forms A and B in mixed nanoparticle suspensions (XRPD); details: competition with crystalline Form A
Procedure: A suspension of nanoparticles of crystalline Form A was generated as described via wet milling the amorphous material. A suspension of nanoparticles of Form B was generated via wet milling of neat Form B crystals as described. The two suspensions were mixed in 1:1 ratio and incubated at room temperature. After 11 days, an XRPD analysis was performed, which estimated that the ratio of Forms A and B was unchanged in the mixture (not shown). A fraction of the mixture was then stirred using a magnetic stir bar to provide an increased energy input in order to accelerate the outcome of the competition experiment.

Row | SMILES | shelf stable as suspensions (XRPD profile of crystalline Form A retained) ([1]; MPP samples formulated at pH 5.8 and pH 7.4, room temperature) | shelf stable in solution (XRPD profile of crystalline Form A retained) ([1]; MPP suspension, room temperature, second sample with additional 1.5 weeks of agitation) | physical stability during storage (XRPD pattern) ([1]; MPP suspension stored 7 weeks at room temperature) | crystal form stability during milling (XRPD) [2] | relative stability under the current formulation conditions [3]
1 | COc1cc2c(Oc3ccc4[nH]c(C)cc4c3F)ncnc2cc1OCCCN1CCC2(CC1)COC2 [crystalline Form A, 7-(3-(4-(4-fluoro-2-methyl-1H-indol-5-yloxy)-6-methoxyquinazolin-7-yloxy)propyl)-2-oxa-7-azaspiro[3.5] nonane] | at least 8 months | at least 7 weeks | – | – | –
2 | COc1cc2c(Oc3ccc4[nH]c(C)cc4c3F)ncnc2cc1OCCCN1CCC2(CC1)COC2 [crystalline Form B, 7-(3-(4-(4-fluoro-2-methyl-1H-indol-5-yloxy)-6-methoxyquinazolin-7-yloxy)propyl)-2-oxa-7-azaspiro[3.5]nonane] | – | – | physically stable during storage | remained stable during milling | more stable
